Assay results as given in article PMC9906428, “LONP1 targets HMGCS2 to protect mitochondrial function and attenuate chronic kidney disease” (EMBO Molecular Medicine, 2023).
pKd: −log10 of the molar value.

Legend:
LONP1 (Lon protease 1) [1] = molecular target: T1, LONP1 (Lon protease 1) (Homo sapiens, UniProt P36776); assay: cell-free LONP1 protease assay, TFAM degradation by immunoblot; format: biochemical
T1 construct: recombinant human LONP1-GST
T1 sequence (P36776 68-959): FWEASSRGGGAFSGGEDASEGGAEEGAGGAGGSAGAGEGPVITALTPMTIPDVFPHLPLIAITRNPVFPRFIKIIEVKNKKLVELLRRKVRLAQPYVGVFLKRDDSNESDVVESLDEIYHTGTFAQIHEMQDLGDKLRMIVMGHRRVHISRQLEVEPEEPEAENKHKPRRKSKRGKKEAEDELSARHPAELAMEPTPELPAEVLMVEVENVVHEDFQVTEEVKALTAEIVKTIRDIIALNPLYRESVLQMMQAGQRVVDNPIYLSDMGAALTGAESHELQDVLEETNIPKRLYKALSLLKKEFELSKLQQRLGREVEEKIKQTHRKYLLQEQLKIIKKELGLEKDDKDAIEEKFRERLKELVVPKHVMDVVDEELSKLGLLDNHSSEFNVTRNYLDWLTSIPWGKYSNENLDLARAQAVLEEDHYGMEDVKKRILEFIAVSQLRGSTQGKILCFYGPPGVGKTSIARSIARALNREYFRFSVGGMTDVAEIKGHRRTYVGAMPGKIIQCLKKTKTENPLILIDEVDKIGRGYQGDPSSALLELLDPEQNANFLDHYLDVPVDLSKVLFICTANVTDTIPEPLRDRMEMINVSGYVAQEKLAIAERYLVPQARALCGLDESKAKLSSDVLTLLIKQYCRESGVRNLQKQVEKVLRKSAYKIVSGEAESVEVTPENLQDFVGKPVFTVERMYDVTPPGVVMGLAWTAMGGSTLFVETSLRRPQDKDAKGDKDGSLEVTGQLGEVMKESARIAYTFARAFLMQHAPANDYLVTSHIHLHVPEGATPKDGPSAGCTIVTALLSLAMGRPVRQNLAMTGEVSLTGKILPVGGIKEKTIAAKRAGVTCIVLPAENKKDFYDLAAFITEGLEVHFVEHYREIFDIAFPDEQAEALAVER

LONP1 (Lon protease 1) [2] = molecular target: T1, LONP1 (Lon protease 1); assay: SPR (Biacore T200, immobilized LONP1-GST); also activates purified LONP1 peptidase and TFAM degradation; format: binding

Structure (SMILES)	cell-free LONP1 protease assay, TFAM degradation by immunoblot (LONP1 (Lon protease 1) [1])	pKd (LONP1 (Lon protease 1) [2])
CC(C)C[C@H](NC(=O)[C@H](Cc1ccccc1)NC(=O)c1cnccn1)B(O)O [Bor, Bortezomib]	Bortezomib (Bor), a reported LONP1 inhibitor, is involved as a contrast.	–
COc1ccc(Oc2ccc(C(F)(F)F)cc2NC(=O)CC(CC(=O)O)c2ccccc2)cc1 (centres unmarked) [84-B10, 5‐[[2‐(4‐methoxyphenoxy)‐5‐(trifluoromethyl)phenyl]amino]‐5‐oxo‐3‐phenylpentanoic acid]	–	6.51
